Assay results published in patent publication EP1266900A1, “Carbamates of rapamycin” (Wyeth, priority 1992, dated 1994).
Where a name gives a salt, the structure may show the parent alone. Read-outs that look alike come from different tables or passages of the source.

Tests used:
[1] = system: pinch skin graft; assay: pinch skin graft survival time, in vivo; parameters: species or system male C3H(H-2K) recipients; settings: dose of 4 mg/kg, intraperitoneally or orally, untreated grafts usually rejected within 6-7 days
Method: (§1) Immunosuppressive activity for representative compounds of this invention was evaluated in an in vitro standard pharmacological test procedure to measure lymphocyte proliferation (LAF) and in an in vivo standard pharmacological test procedure which evaluated the survival time of a pinch skin graft.
Representative compounds of this invention were also evaluated in an in vivo test procedure designed to determine the survival time of pinch skin graft from male BAB/c donors transplanted to male C3H(H-2K) recipients. The method is adapted from Billingham R.E. and Medawar P.B., J. Exp. Biol. 28:385-402, (1951). Briefly, a pinch skin graft from the donor was grafted on the dorsum of the recipient as a allograft, and an isograft was used as control in the same region. The recipients were treated with either varying concentrations of test compounds intraperitoneally or orally. Rapamycin was used as a test control. Untreated recipients serve as rejection control. The graft was monitored daily and observations were recorded until the graft became dry and formed a blackened scab. This was considered as the rejection day. The mean graft survival time (number of days ± S.D.) of the drug treatment group was compared with the control group. […] Results are expressed as the mean survival time in days. Untreated (control) pinch skin grafts are usually rejected within 6-7 days. The results shown in Table 1 are based on a dose of 4 mg/kg of test compound. A survival time of 12.0 ± 1.7 days was obtained for rapamycin at 4 mg/kg.

[2] = system: cells from the thymus of normal BALB/c mice; assay: comitogen-induced thymocyte proliferation procedure (LAF); assay type: cell-based; settings: for IC50: read-out: LAF IC50; for LAF (ratio): ratio compared with rapamycin, greater than 1 = inhibited thymocyte proliferation to a greater extent than rapamycin
Method: as §1
The comitogen-induced thymocyte proliferation procedure (LAF) was used as an in vitro measure of the immunosuppressive effects of representative compounds. Briefly, cells from the thymus of normal BALB/c mice are cultured for 72 hours with PHA and IL-1 and pulsed with tritiated thymidine during the last six hours. Cells are cultured with and without various concentrations of rapamycin, cyclosporin A, or test compound. Cells are harvested and incorporated radioactivity is determined. Inhibition of lymphoproliferation is assessed as percent change in counts per minute from non-drug treated controls. For each compound evaluated, rapamycin was also evaluated for the purpose of comparison. An IC50 was obtained for each test compound as well as for rapamycin. […] A positive ratio indicates immunosuppressive activity. […] Calculation of the ratio is shown below. (()^3 H-control thymus cells -)/(()^3 H-control thymus cells -)(()^3 H-rapamycin-treated thymus cells)/(()^3 H-test compound-treated cells) [formula]

[3] = thymocytes cultured for 72 hours with PHA and IL-1, tritiated thymidine incorporation

| Compound | Skin Graft (days ± SD), mean survival time ([1]; hydrochloride salt, 4 mg/kg) [days] | IC50 ([2]; thymocytes cultured for 72 hours with PHA and IL-1, tritiated thymidine incorporation, hydrochloride salt) [pM] | Skin Graft (days ± SD), mean survival time [1] [days] | IC50 ([2]; Mus musculus, Thymocyte, 72 h, thymocytes cultured for 72 hours with PHA and IL-1, tritiated thymidine incorporation) [pM] | LAF (ratio) [2] | IC50 ([2]; Mus musculus, Thymocyte, 72 h) [pM] | IC50 [2, 3] [pM] |
| --- | --- | --- | --- | --- | --- | --- | --- |
| CO[C@H]1C[C@@H]2CC[C@@H](C)[C@@](O)(O2)C(=O)C(=O)N2CCCC[C@H]2C(=O)O[C@H]([C@H](C)C[C@@H]2CC[C@@H](OC(=O)NCc3cccnc3)[C@H](OC)C2)CC(=O)[C@H](C)/C=C(\C)[C@@H](O)[C@@H](OC)C(=O)[C@H](C)C[C@H](C)/C=C/C=C/C=C/1C [Example 13, Rapamycin 42-ester with 3-pyridinylmethyl carbamic acid hydrochloride salt] | 9.50 ± 0.6 | 900 |  |  |  |  |  |
| CO[C@H]1C[C@@H]2CC[C@@H](C)[C@@](O)(O2)C(=O)C(=O)N2CCCC[C@H]2C(=O)O[C@H]([C@H](C)C[C@@H]2CC[C@@H](OC(=O)NCc3ccncc3)[C@H](OC)C2)CC(=O)[C@H](C)/C=C(\C)[C@@H](O)[C@@H](OC)C(=O)[C@H](C)C[C@H](C)/C=C/C=C/C=C/1C [Example 14, Rapamycin 42-ester with 4-pyridinylmethyl carbamic acid] |  |  | 9.17 ± 1.7 | 500 | 3.8 |  |  |
| CO[C@H]1C[C@@H]2CC[C@@H](C)[C@@](O)(O2)C(=O)C(=O)N2CCCC[C@H]2C(=O)O[C@H]([C@H](C)C[C@@H]2CC[C@@H](O)[C@H](OC)C2)CC(=O)[C@H](C)/C=C(\C)[C@@H](O)[C@@H](OC)C(=O)[C@H](C)C[C@H](C)/C=C/C=C/C=C/1C [rapamycin, Rapamycin] |  |  | 12.0 ± 1.7 |  |  | 2200 to 9900 |  |
| Rapamycin 42-ester with 2-(2-aminoethoxy)ethyl carbamic acid [Example 21] |  |  | 10.4 ± 0.5 |  | 0.6 |  | 6000 |
| Rapamycin 42-ester with 2-pyridinylmethyl carbamic acid hydrochloride salt [Example 11] |  |  | 11.40 ± 0.9 |  | 5.0 |  | 700 |
